Source: patent publication US11603349B2, “Anti-fibrotic compounds” (Certa Therapeutics Pty Ltd, priority 2017, dated 2023)
Structures can show the parent of a compound that is named as a salt.

Legend:
[1] = system: TGF-β induced [14C]-proline incorporation in rat mesangial cells; assay: [14C]-proline incorporation assay (collagen biosynthesis); assay type: cell-based; settings: Rattus norvegicus, Mesangial cell, 44 h, inhibition of TGF-β1 (1 ng/ml) induced [14C]-proline incorporation, IRMC cells
[2] = MTS tetrazolium reduction cell viability assay; settings: rat, rat mesangial cells (1097/IRMC cells), TGF-β1 stimulated, CC50 (μM), vs 1% DMSO vehicle

| Compound | IC50 [1] | CC50 at 48 h [2] |
| --- | --- | --- |
| COc1ccc(/C=C/C(=O)Nc2ccccc2C(=O)O)cc1OCCc1ccccn1 [Example 62, (E)-2-(3-(4-methoxy-3-(2-(pyridin-2-yl)ethoxy)phenyl)acrylamido)benzoic acid] | 49 µM | 321 µM |
| C#CCOc1ccc(/C=C/C(=O)Nc2ccccc2C#N)cc1OC [Example 6, (E)-N-(2-cyanophenyl)-3-(3-methoxy-4-(prop-2-yn-1-yloxy)phenyl)acrylamide] | 11.4 µM | > 300 µM |
| COc1ccc(C2CC2C(=O)Nc2ccc(Cl)cc2)cc1OCc1cnn(C)c1 (stereo not drawn) [Example 149, N-(4-chlorophenyl)-2-(4-methoxy-3-((1-methyl-1H-pyrazol-4-yl)methoxy)phenyl)cyclopropane-1-carboxamide] | 8.35 µM | > 54.8 µM |
| C#CCOCc1ccc(/C=C/C(=O)Nc2ccccc2C(=O)O)cc1OC [Example 72, (E)-2-(3-(3-methoxy-4-((prop-2-yn-1-yloxy)methyl)phenyl)acrylamido)benzoic acid] | 15 µM | > 300 µM |
| COc1cc(/C=C/C(=O)N2CCOc3ccccc32)ccc1OC1CCN(C)C1 (stereo not drawn) [Example 118, (E)-1-(2H-benzo[b][1,4]oxazin-4(3H)-yl)-3-(3-methoxy-4-((1-methylpyrrolidin-3-yl)oxy)phenyl)prop-2-en-1-one] | 14.3 µM | 25.5 µM |
| COc1ccc(/C=C/C(=O)Nc2ccccc2C(=O)O)cc1OCc1ccnn1C [Example 67, (E)-2-(3-(4-methoxy-3-((1-methyl-1H-pyrazol-5-yl)methoxy)phenyl)acrylamido)benzoic acid] | 23.5 µM | 144 µM |
| COc1ccc(/C=C/C(=O)Nc2cccc(C#N)c2)c(OCCN(C)C)c1 [Example 93, (E)-N-(3-cyanophenyl)-3-(2-(2-(dimethylamino)ethoxy)-4-methoxyphenyl)acrylamide] | 5.23 µM | 17.2 µM |
| COc1ccc(/C=C/C(=O)Nc2ccccc2C(=O)O)cc1OCCc1cccnc1 [Example 64, (E)-2-(3-(4-methoxy-3-(2-(pyridin-3-yl)ethoxy)phenyl)acrylamido)benzoic acid] | 14.2 µM | 142 µM |
| C#CCNCc1ccc(/C=C/C(=O)Nc2ccccc2C(=O)O)cc1OC [Example 75, (E)-2-(3-(3-methoxy-4-((prop-2-yn-1-ylamino)methyl)phenyl)acrylamido)benzoic acid] | 27.6 µM | > 300 µM |
| C#CCOc1ccc(/C=C/C(=O)Nc2ccccc2C(=O)Nc2nn[nH]n2)cc1OC [Example 31, (E)-2-(3-(3-methoxy-4-(prop-2-yn-1-yloxy)phenyl)acrylamido)-N-(2H-tetrazol-5-yl)benzamide] | 13.9 µM | > 300 µM |
| COc1cccc(/C=C/C(=O)Nc2ccccc2C#N)c1OCCN(C)C [Example 92, (E)-N-(2-cyanophenyl)-3-(2-(2-(dimethylamino)ethoxy)-3-methoxyphenyl)acrylamide] | 49.2 µM | 109 µM |
| C#CCOc1ccc(/C=C/C(=O)Nc2ccccc2F)cc1OC [Example 1, (E)-N-(2-fluorophenyl)-3-(3-methoxy-4-(prop-2-yn-1-yloxy)phenyl)acrylamide] | 10.9 µM | > 300 µM |
| COc1ccc(C2CC2C(=O)Nc2ccc(F)cc2)c(OCCN(C)C)c1OC (stereo not drawn) [Example 122, 2-(2-(2-(dimethylamino)ethoxy)-3,4-dimethoxyphenyl)-N-(4-fluorophenyl)cyclopropane-1-carboxamide] | 17.2 µM | 234 µM |
| CN1CCOc2cc(/C=C/C(=O)Nc3ccccc3C(=O)O)ccc21 [Example 110, (E)-2-(3-(4-methyl-3,4-dihydro-2H-benzo[b][1,4]oxazin-7-yl)acrylamido)benzoic acid] | 13.9 µM | > 300 µM |
| C#CCOc1ccc(/C=C/C(=O)N2CCC(C(=O)OC)c3ccccc32)cc1OC (stereo not drawn) [Example 9, methyl (E)-1-(3-(3-methoxy-4-(prop-2-yn-1-yloxy)phenyl)acryloyl)-1,2,3,4-tetrahydroquinoline-4-carboxylate] | 1.94 µM | 25.5 µM |
| C#CCOc1ccc(/C=C/C(=O)Nc2ccccc2C(=O)NCc2ccccn2)cc1OC [Example 41, (E)-2-(3-(3-methoxy-4-(prop-2-yn-1-yloxy)phenyl)acrylamido)-N-(pyridin-2-ylmethyl)benzamide] | 24.8 µM | 341 µM |
| COc1cc(/C=C/C(=O)Nc2ccccc2C(=O)O)ccc1OCCc1ccccn1 [Example 56, (E)-2-(3-(3-methoxy-4-(2-(pyridin-2-yl)ethoxy)phenyl)acrylamido)benzoic acid] | 32.2 µM | 150 µM |
| C#CCOc1ccc(/C=C/C(=O)Nc2ccccc2C(=O)Nc2cnn(C)c2)cc1OC [Example 47, (E)-2-(3-(3-methoxy-4-(prop-2-yn-1-yloxy)phenyl)acrylamido)-N-(1-methyl-1H-pyrazol-4-yl)benzamide] | 29.1 µM | > 300 µM |

| Compound | IC50 [1] | CC50 at 48 h [2] |
| --- | --- | --- |
| COc1cc(/C=C/C(=O)Nc2ccccc2C(=O)O)ccc1N1CCN(C)CC1 [Example 97, (E)-2-(3-(3-methoxy-4-(4-methylpiperazin-1-yl)phenyl)acrylamido)benzoic acid] | 46.2 µM | > 300 µM |
| COc1ccc(/C=C/C(=O)Nc2ccccc2Cl)cc1OCc1cnn(C)c1 [Example 159, (E)-N-(2-chlorophenyl)-3-(4-methoxy-3-((1-methyl-1H-pyrazol-4-yl)methoxy)phenyl)acrylamide] | 2.43 µM | > 10 µM |
| COc1ccc(/C=C/C(=O)Nc2ccc(C#N)cc2)c(OCCN(C)C)c1OC [Example 129, (E)-N-(4-cyanophenyl)-3-(2-(2-(dimethylamino)ethoxy)-3,4-dimethoxyphenyl)acrylamide trifluoroacetic acid salt] | 12.3 µM | 28.9 µM |
| C#CCOc1ccc(/C=C/C(=O)Nc2ccccc2C(=O)NCc2cncn2C)cc1OC [Example 40, (E)-2-(3-(3-methoxy-4-(prop-2-yn-1-yloxy)phenyl)acrylamido)-N-((1-methyl-1H-imidazol-5-yl)methyl)benzamide] | 6.76 µM | > 300 µM |
| COc1ccc(/C=C/C(=O)Nc2ccccc2C(=O)O)cc1OCc1cccnc1 [Example 63, (E)-2-(3-(4-methoxy-3-(pyridin-3-ylmethoxy)phenyl)acrylamido)benzoic acid] | 18.2 µM | 79.4 µM |
| C#CCOc1ccc(/C=C/C(=O)Nc2ccccc2C(=O)NCCCN(C)C)cc1OC [Example 32, (E)-N-(3-(dimethylamino)propyl)-2-(3-(3-methoxy-4-(prop-2-yn-1-yloxy)phenyl)acrylamido) benzamide] | 27.4 µM | 32 µM |
| C#CCOc1ccc(/C=C/C(=O)Nc2ccccc2C#N)c(OC2CCNCC2)c1OC [Example 88, (E)-N-(2-cyanophenyl)-3-[3-methoxy-2-(4-piperidyloxy)-4-prop-2-ynoxy-phenyl]prop-2-enamide] | 4.45 µM | 12.4 µM |
| C#CCOc1ccc(/C=C/C(=O)Nc2ccccc2C(=O)NCCN2CCOCC2)cc1OC [Example 35, (E)-2-(3-(3-methoxy-4-(prop-2-yn-1-yloxy)phenyl)acrylamido)-N-(2-morpholinoethyl)benzamide] | 37.4 µM | 301 µM |
| C#CCOc1ccc(/C=C/C(=O)n2nc(O)c3ccccc32)cc1OC [Example 15, (E)-1-(3-hydroxy-1H-indazol-1-yl)-3-(3-methoxy-4-(prop-2-yn-1-yloxy)phenyl)prop-2-en-1-one] | 25.2 µM | 304 µM |
| C#CCOc1ccc(/C=C/C(=O)Nc2ccccc2C(=O)NS(C)(=O)=O)cc1OC [Example 27, (E)-2-(3-(3-methoxy-4-(prop-2-yn-1-yloxy)phenyl)acrylamido)-N-(methylsulfonyl)benzamide] | 21.4 µM | 120 µM |
| C#CCOc1ccc(/C=C/C(=O)Nc2ccccc2C(=O)NC2CCNCC2)cc1OC [Example 49, (E)-2-(3-(3-methoxy-4-(prop-2-yn-1-yloxy)phenyl)acrylamido)-N-(piperidin-4-yl)benzamide] | 25.3 µM | 30.6 µM |
| C#CCOc1ccc(/C=C/C(=O)Nc2ccccc2C(=O)NCCc2ccncc2)cc1OC [Example 46, (E)-2-(3-(3-methoxy-4-(prop-2-yn-1-yloxy)phenyl)acrylamido)-N-(2-(pyridin-4-yl)ethyl)benzamide] | 46.6 µM | 186 µM |
| C#CCOc1ccc(/C=C/C(=O)Nc2ccccc2Br)cc1OC [Example 4, (E)-N-(2-bromophenyl)-3-(3-methoxy-4-(prop-2-yn-1-yloxy)phenyl)acrylamide] | 4.32 µM | 323 µM |
| COc1ccc(/C=C/C(=O)Nc2ccc(F)cc2)c(OCCN(C)C)c1OC [Example 128, (E)-3-(2-(2-(dimethylamino)ethoxy)-3,4-dimethoxyphenyl)-N-(4-fluorophenyl)acrylamide trifluoroacetic acid salt] | 11.5 µM | 24.4 µM |
| C#CCOc1ccc(/C=C/C(=O)Nc2ccc(F)cc2)cc1CC [Example 125, (E)-3-(3-ethyl-4-(prop-2-yn-1-yloxy)phenyl)-N-(4-fluorophenyl)acrylamide] | 17.6 µM | > 300 µM |
| COc1cc(/C=C/C(=O)Nc2ccccc2C(=O)O)ccc1OCc1cnn(C)c1 [Example 53, (E)-2-(3-(3-methoxy-4-((1-methyl-1H-pyrazol-4-yl)methoxy)phenyl)acrylamido)benzoic acid] | 15 µM | 226 µM |
| C#CCOc1ccc(/C=C/C(=O)Nc2ccccc2Cl)cc1OC [Example 3, (E)-N-(2-chlorophenyl)-3-(3-methoxy-4-(prop-2-yn-1-yloxy)phenyl)acrylamide] | 3.94 µM | 71.1 µM |
| COc1cc(/C=C/C(=O)Nc2ccccc2C(=O)O)ccc1CN1CCN(C)CC1 [Example 68, (E)-2-(3-(3-methoxy-4-((4-methylpiperazin-1-yl)methyl)phenyl)acrylamido)benzoic acid] | 44.9 µM | > 300 µM |
